We go through nine compounds from patent US20180161461A1, “Rare Earth Oxide Particles and Use Thereof in Particular In Imaging” (Ecole Polytechnique, priority 2012, published 2018).

The conditions of data set [1]: logarithmic dissociation constant for the Gd-ligand complexes (GdL); cited from earlier work.
For data set [2] the following is noted: proton resonance frequency 20 MHz, available temperature closest to 37° C.; cited from earlier work.
The nature of data set [3]: Measurement of relaxation time / relaxivity, Bruker minispec relaxometer. As to conditions: relaxivity per Gd ion, 20 MHz, 37° C., ultrapure water. The data set is classed as physicochemical. The method, then:
The relaxation times relating to the particles obtained were measured on a Bruker minispec NMS 120 relaxometer (Bruker, Rheinstetten, Germany) operating at a proton resonance frequency of ω/2π=20 MHz and a temperature of 37° C. In order to avoid any confusion between angular frequency ω and the frequency v, here, all of the frequencies given in Hz correspond to ω/2π=v. The spectrometer was calibrated using standard water/oil mixtures with known component ratios, in accordance with the manufacturer's instructions. The pre-diluted samples were further diluted directly in 10 mm NMR (nuclear magnetic resonance) tubes using a series containing 10×1 mL samples. All of the dilutions were made using ultrapure water. The tubes were sealed and placed in a water bath at 37° C. for at least 10 minutes before measurement, The relaxation times T1 were determined by using the inversion-recovery pulse sequence with a repetition time TR=5 s. […] In general, 100 echoes with an echo time TE between 0.5 and 2 ms depending on the concentration of the sample were recorded. […]
The relaxivities per particle were determined by firstly calculating the volume of a particle. To this end, the nanoparticles were assumed to be homogeneous in dimension and spherical with a diameter equal to the number average diameter determined by DLS (dynamic light scattering). […]

On to `O=C([O-])CN1CCN(CC(=O)[O-])CCN([C@H](CO)[C@H](O)CO)CCN(CC(=O)[O-])CC1.[Gd+3]` (racemic) [Gadovist], for which the pKGdL in data set [1] was 21.1. Also, in data set [2], the r1 was 4.8 mM⁻¹ s⁻¹.

In the case of `O=C([O-])CN(CCN(CC(=O)[O-])CC(COP(=O)([O-])OC1CCC(c2ccccc2)(c2ccccc2)CC1)N(CC(=O)[O-])CC(=O)[O-])CC(=O)[O-].[Gd+3].[Na+].[Na+].[Na+]` (stereo not drawn) [Ablavar], in data set [1], the pKGdL was 6.6.

Consider `CCOc1ccc(CC(CN(CCN(CC(=O)[O-])CC(=O)[O-])CC(=O)[O-])N(CC(=O)[O-])CC(=O)[O-])cc1.[Gd+3].[Na+].[Na+]` (stereo not drawn) [Eovist], for which the r1 in data set [2] is 5.4 mM⁻¹ s⁻¹.

`[Cl][Gd]([Cl])[Cl]` [GdCl3]: the “r1^ion” value in data set [3] worked out at 10.4 mM⁻¹ s⁻¹.

With `CNC[C@H](O)[C@@H](O)[C@H](O)[C@H](O)CO.CNC[C@H](O)[C@@H](O)[C@H](O)[C@H](O)CO.O=C([O-])CN(CCN(CC(=O)[O-])CC(=O)O)CCN(CC(=O)[O-])CC(=O)O.[Gd+3]` [Magnevist], in data set [1], the pKGdL is 22.5. Further, the r1 in data set [2] is 3.8 mM⁻¹ s⁻¹.

On to `CNC[C@H](O)[C@@H](O)[C@H](O)[C@H](O)CO.CNC[C@H](O)[C@@H](O)[C@H](O)[C@H](O)CO.O=C([O-])CN(CCN(CC(=O)[O-])CC(=O)O)CCN(CC(=O)O)C(COCc1ccccc1)C(=O)[O-].[Gd+3]` (stereo not drawn) [MultiHance], for which the pKGdL in data set [1] is on record as 22.6. Besides, the r1 in data set [2] was 4.39 mM⁻¹ s⁻¹.

With `CNC(=O)CN(CCN(CCN(CC(=O)[O-])CC(=O)NC)CC(=O)[O-])CC(=O)[O-].[Gd+3]` [Omniscan], the pKGdL in data set [1] is 16.9. Further, the r1 in data set [2] is 3.96 mM⁻¹ s⁻¹.

As to `COCCNC(=O)CN(CCN(CCN(CC(=O)[O-])CC(=O)NCCOC)CC(=O)[O-])CC(=O)[O-].[Gd+3]` [OptiMark], in data set [1], the pKGdL was 16.8. The r1 in data set [2] was 4.7 mM⁻¹ s⁻¹.

`CC(O)CN1CCN(CC(=O)[O-])CCN(CC(=O)[O-])CCN(CC(=O)[O-])CC1.[Gd+3]` (stereo not drawn) [Prohance]: the pKGdL in data set [1] is given as 23.8. Moreover, the r1 in data set [2] is 3.7 mM⁻¹ s⁻¹.
